# Source: ChEMBL document CHEMBL5696442, “Discovery of type II inhibitors of TGFβ-activated kinase 1 (TAK1) and mitogen-activated protein kinase kinase kinase kinase 2 (MAP4K2)” (J Med Chem, 2015)
# Calls of active or inactive are those of the source. No cut-off for these calls is given here.
# Legend:
# [1] = system: Tyrosine-protein kinase ABL1 (Homo sapiens), P00519 [F317I]; assay: Inhibition of ABL1 F317I mutant (unknown origin) at 10 uM by Ambit Kinomescan binding assay relative to control
# [2] = target: T1, Serine/threonine-protein kinase ULK1 (Homo sapiens) (UniProt O75385); assay: Inhibition of ULK1 (unknown origin) at 10 uM by Ambit Kinomescan binding assay
# T1 sequence (whole entry): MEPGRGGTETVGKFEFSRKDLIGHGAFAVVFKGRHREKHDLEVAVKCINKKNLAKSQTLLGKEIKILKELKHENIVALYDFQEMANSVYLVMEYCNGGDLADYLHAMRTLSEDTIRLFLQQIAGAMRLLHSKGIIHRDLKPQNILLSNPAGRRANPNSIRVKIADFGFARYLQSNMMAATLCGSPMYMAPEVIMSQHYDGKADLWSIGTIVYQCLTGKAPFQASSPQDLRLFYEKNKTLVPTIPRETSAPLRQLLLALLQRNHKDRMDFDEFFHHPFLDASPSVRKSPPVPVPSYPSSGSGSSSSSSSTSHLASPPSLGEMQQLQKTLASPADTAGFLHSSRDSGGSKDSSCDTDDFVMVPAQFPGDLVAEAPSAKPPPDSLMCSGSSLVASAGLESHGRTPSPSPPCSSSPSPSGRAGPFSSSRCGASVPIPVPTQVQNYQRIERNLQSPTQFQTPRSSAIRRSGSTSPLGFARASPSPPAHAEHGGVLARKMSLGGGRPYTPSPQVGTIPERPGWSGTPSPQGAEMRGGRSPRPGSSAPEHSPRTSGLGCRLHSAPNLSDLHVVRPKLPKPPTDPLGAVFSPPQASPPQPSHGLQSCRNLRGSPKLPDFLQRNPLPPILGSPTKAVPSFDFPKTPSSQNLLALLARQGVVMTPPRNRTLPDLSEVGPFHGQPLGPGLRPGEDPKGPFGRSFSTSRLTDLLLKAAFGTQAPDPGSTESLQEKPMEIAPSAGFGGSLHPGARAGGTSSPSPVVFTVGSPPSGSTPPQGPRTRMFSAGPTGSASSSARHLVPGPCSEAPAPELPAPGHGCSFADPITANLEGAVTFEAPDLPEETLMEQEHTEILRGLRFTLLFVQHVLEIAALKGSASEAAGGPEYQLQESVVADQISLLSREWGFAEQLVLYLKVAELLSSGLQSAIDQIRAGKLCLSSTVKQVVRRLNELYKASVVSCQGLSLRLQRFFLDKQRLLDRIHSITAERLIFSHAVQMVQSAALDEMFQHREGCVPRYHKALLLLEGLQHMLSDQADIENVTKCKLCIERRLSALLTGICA
# [3] = target: Serine/threonine-protein kinase Nek7 (Homo sapiens) (UniProt Q8TDX7); assay: Inhibition of NEK7 ACT labeling site in human A-375 cells at 0.5 uM by KiNativ Profiling analysis relative to control; assay type: cell-based
# [4] = target: Cyclin-dependent kinase 1 (Homo sapiens) (UniProt P06493); assay: Inhibition of CDC2 Lys1 labeling site in human Huh-7 cells at 1 uM by KiNativ Profiling analysis relative to control; assay type: cell-based
# [5] = target: Serine/threonine-protein kinase MARK2 (Homo sapiens) (UniProt Q7KZI7); assay: Inhibition of MARK2 Lys2 labeling site harbouring EVAIKIIDKTQLNPTSLQK in human Huh-7 cells at 1 uM by KiNativ Profiling analysis relative to control; assay type: cell-based
# [6] = target: Serine/threonine-protein kinase 25 (Homo sapiens) (UniProt O00506); assay: Inhibition of YSK1 Lys2 labeling site in human Huh-7 cells at 1 uM by KiNativ Profiling analysis relative to control; assay type: cell-based
# [7] = target: Hormonally up-regulated neu tumor-associated kinase (Homo sapiens) (UniProt P57058); assay: Inhibition of HUNK (unknown origin) at 1 uM by Ambit Kinomescan binding assay relative to control; values are per cent of control
# [8] = target: Maternal embryonic leucine zipper kinase (Homo sapiens) (UniProt Q14680); assay: Inhibition of MELK (unknown origin) at 1 uM by Ambit Kinomescan binding assay relative to control; values are per cent of control
# [9] = target: Serine/threonine-protein kinase 4 (Homo sapiens) (UniProt Q13043); assay: Inhibition of MST1 Lys1 labeling site harbouring AIHKETGQIVAIKQVPVESDLQEIIK in human A-375 cells at 0.5 uM by KiNativ Profiling analysis relative to control
# Sequence of Serine/threonine-protein kinase 4 (Homo sapiens) (Q13043 whole entry, looked up): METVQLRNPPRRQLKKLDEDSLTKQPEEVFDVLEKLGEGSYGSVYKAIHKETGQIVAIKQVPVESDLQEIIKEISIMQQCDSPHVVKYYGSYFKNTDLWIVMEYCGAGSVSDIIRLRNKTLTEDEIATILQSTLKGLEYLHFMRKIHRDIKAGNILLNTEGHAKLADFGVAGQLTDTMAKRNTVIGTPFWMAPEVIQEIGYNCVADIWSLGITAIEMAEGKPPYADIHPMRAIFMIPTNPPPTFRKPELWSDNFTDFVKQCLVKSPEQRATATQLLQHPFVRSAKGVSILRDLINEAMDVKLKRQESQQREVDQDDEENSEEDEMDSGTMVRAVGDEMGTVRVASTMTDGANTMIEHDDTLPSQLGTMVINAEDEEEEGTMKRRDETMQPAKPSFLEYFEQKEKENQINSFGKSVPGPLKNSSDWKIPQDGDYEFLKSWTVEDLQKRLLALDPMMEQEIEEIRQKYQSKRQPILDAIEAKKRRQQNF
# Sequence of Serine/threonine-protein kinase 25 (Homo sapiens) (O00506 whole entry, looked up): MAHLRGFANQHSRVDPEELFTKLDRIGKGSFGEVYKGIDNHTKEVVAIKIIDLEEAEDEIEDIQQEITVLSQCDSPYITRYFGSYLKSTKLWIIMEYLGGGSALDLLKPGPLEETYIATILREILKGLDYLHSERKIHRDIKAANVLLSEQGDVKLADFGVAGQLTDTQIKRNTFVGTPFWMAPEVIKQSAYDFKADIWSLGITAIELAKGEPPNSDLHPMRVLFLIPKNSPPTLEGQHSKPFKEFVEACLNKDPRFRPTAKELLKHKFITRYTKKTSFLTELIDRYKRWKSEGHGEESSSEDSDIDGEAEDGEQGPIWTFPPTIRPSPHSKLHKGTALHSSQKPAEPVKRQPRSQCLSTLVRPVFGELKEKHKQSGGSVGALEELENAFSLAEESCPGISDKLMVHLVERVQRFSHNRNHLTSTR
# Sequence of Serine/threonine-protein kinase MARK2 (Homo sapiens) (Q7KZI7 whole entry): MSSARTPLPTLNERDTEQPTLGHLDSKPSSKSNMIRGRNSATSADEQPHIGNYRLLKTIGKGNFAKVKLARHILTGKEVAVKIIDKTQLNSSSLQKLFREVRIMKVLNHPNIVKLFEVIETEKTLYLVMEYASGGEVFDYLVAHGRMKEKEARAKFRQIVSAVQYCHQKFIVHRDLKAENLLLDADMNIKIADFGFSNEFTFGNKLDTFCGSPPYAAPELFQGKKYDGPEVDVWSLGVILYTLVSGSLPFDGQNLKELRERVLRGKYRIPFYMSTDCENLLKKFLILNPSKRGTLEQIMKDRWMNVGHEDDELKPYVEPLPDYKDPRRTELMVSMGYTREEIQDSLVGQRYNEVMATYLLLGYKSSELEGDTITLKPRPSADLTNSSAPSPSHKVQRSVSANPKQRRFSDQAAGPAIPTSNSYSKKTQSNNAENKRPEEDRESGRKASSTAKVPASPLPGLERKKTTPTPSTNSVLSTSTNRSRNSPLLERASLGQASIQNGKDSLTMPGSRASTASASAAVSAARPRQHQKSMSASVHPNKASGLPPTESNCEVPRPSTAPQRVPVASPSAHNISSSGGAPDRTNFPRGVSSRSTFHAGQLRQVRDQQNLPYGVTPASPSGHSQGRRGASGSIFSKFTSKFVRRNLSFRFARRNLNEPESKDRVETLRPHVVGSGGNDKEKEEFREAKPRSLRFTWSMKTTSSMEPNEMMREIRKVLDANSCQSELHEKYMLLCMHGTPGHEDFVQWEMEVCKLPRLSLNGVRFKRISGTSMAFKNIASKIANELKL
# Sequence of Hormonally up-regulated neu tumor-associated kinase (Homo sapiens) (P57058 whole entry): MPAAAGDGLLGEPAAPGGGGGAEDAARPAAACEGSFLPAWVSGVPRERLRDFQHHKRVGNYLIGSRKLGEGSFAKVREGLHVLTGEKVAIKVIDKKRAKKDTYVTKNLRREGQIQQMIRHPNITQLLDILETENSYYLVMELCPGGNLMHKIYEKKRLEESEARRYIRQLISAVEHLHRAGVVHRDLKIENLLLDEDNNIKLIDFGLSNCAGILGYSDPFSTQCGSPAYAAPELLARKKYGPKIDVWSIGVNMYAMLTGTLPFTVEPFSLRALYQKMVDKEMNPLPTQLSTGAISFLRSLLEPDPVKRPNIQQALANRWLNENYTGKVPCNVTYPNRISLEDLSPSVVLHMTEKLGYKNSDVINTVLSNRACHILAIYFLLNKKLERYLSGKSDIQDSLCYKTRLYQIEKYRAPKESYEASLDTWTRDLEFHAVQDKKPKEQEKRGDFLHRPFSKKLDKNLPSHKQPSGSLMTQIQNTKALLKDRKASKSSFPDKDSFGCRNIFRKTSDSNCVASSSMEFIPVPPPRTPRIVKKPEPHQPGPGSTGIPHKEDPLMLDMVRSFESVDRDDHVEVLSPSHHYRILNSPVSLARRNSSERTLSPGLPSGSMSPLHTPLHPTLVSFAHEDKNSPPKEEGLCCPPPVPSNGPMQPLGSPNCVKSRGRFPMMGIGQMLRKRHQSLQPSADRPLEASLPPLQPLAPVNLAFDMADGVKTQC
# Sequence of Maternal embryonic leucine zipper kinase (Homo sapiens) (Q14680 whole entry, looked up): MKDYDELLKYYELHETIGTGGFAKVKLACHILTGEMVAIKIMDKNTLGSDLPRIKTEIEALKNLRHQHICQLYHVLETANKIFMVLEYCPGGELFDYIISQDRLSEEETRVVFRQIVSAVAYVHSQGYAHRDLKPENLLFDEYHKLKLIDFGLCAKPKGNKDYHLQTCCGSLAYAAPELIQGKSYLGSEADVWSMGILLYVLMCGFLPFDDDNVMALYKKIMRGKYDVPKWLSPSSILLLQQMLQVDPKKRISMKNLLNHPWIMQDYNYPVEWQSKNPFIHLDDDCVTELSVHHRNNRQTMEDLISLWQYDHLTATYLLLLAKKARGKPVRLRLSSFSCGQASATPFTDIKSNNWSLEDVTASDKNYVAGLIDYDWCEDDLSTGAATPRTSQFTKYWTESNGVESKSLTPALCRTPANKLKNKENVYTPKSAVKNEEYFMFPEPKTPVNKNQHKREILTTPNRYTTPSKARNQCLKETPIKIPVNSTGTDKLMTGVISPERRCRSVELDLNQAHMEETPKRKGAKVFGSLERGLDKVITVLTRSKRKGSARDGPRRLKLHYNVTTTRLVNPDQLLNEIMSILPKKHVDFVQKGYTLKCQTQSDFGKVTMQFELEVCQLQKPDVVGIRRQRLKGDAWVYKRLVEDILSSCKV
# Sequence of Cyclin-dependent kinase 1 (Homo sapiens) (P06493 whole entry, looked up): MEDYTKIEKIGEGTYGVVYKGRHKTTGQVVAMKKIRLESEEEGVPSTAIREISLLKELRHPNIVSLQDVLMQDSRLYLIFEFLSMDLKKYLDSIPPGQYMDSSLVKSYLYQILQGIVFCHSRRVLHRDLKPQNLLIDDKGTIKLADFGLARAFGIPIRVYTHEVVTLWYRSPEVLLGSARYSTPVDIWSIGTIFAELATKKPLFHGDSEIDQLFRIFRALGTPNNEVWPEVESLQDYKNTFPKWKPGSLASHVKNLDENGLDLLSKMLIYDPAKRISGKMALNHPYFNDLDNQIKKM
# Sequence of Tyrosine-protein kinase ABL1 (Homo sapiens), P00519 [F317I] (P00519 whole entry F317I): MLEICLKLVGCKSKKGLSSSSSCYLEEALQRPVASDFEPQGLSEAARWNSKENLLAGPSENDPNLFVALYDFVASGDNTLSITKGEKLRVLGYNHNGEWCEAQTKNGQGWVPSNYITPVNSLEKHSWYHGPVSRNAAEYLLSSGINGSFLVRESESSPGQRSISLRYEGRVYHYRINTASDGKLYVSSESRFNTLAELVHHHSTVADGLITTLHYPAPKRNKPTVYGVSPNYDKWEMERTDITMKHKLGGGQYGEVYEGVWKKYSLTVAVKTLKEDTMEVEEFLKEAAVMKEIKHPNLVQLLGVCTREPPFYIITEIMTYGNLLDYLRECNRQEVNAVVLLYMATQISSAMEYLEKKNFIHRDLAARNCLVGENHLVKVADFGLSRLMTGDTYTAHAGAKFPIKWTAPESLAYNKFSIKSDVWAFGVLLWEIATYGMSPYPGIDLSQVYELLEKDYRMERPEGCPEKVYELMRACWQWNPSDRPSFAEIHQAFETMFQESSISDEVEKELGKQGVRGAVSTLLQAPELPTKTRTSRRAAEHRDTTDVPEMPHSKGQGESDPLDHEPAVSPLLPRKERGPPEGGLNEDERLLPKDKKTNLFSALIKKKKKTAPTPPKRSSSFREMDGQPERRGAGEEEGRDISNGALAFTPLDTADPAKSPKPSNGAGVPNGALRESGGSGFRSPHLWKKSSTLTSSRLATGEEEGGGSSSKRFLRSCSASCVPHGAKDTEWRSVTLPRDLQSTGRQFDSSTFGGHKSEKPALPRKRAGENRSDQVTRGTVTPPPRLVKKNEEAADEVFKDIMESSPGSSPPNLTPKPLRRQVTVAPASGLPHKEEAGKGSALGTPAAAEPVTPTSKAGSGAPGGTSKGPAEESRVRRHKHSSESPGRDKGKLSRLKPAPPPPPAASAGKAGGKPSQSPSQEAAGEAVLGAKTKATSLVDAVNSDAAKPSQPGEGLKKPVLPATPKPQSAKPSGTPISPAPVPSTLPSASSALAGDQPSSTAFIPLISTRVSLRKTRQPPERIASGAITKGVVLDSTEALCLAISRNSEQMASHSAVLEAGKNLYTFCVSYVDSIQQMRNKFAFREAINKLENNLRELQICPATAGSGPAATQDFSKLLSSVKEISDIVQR
# Sequence of Serine/threonine-protein kinase Nek7 (Homo sapiens) (Q8TDX7 whole entry, looked up): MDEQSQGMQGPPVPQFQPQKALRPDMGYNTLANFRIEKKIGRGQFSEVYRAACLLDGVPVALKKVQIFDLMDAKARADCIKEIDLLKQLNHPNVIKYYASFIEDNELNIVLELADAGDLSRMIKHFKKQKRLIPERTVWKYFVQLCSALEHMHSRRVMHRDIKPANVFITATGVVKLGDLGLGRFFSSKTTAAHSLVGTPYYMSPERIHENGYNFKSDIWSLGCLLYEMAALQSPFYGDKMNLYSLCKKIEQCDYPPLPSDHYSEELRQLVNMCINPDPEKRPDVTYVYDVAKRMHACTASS
structure (smiles),measurement,setting,value
CCN1CCN(Cc2ccc(NC(=O)c3ccc(C)c(Oc4ccnc5[nH]ccc45)c3)cc2C(F)(F)F)CC1,inhibition,[1],0.05%
same,inhibition,[2],inactive
same,inhibition,[3],1.6%
CNc1cc(Oc2cc(C(=O)Nc3cc(N4CCN(C)CC4)cc(C(F)(F)F)c3)ccc2C)ncn1,inhibition,[4],8.9%
same,inhibition,[5],11.3%
same,inhibition,[6],25.2%
CCN1CCN(Cc2ccc(NC(=O)c3ccc(C)c(/C=C/c4cnc5[nH]ccc5c4OC)c3)cc2C(F)(F)F)CC1,residual activity,[7],57%
same,residual activity,[8],72%
same,inhibition,[9],-4.7%
